Measured values published in patent US4503068A, “Use of prostaglandin analogues to treat cytodamage” (priority 1982, dated 1985).
Where two headings read alike, the source gives them in different places.

How the values were obtained:
[1] = tested on: carbon tetrachloride (CCl4) induced liver damage; experiment: Effect on carbon tetrachloride (CCl4) induced liver damage (liver cell necrosis type); assay type: in vivo, Male Wistar rats; conditions: Rattus norvegicus; for inhibition in vivo at 0.1 mg/kg: 100 μg/kg 6 and 12 hr after CCl4; for inhibition in vivo at 0.02 mg/kg: 20 μg/kg 6 and 12 hr after CCl4; for inhibition in vivo at 1 mg/kg: 1000 μg/kg 6 and 12 hr after CCl4; for inhibition in vivo at 0.5 mg/kg: 500 μg/kg 6 and 12 hr after CCl4; for inhibition in vivo at 0.05 mg/kg: 50 μg/kg 6 and 12 hr after CCl4; for inhibition in vivo at 2 mg/kg: 2000 μg/kg 6 and 12 hr after CCl4
Experimental: Effect on carbon tetrachloride (CCl4) induced liver damage (liver cell necrosis type)
Male Wistar rats weighing 180-220 g were used. Rats were dosed intraperitoneally with CCl4 dissolved in olive oil (5% w/v) at a volume of 500 μl/kg after 18 hr starvation. The compound under test was administered orally (p.o.) or subcutaneously (s.c.) 6 and 12 hr after CCl4 injection in rats and blood was collected after 24 hr. Plasma glutamic oxaloacetic transaminase (GOT) and glutamic pyruvic transaminase (GPT) activities were determined by ultraviolet absorbance methods (optimised method based on the recommendations of the Deutsche Gesellschaft f/u/ r Klinische Chemie). The effects of the compounds tested were assessed by the inhibition rate in comparison with controls. Inhibition rate was calculated by the following formula. [formula]
(§1) In Tables 1 to 4 hereinafter the dose shown is the amount given at each administration of the compound under test.

[2] = tested on: D(+)-galactosamine hydrochloride-induced liver damage; experiment: Effect on D(+)-galactosamine hydrochloride-induced liver damage (hepatitis type); assay type: in vivo, Male Wistar rats; conditions: p.o.
Experimental: as §1
Effect on D(+)-galactosamine hydrochloride-induced liver damage (hepatitis type)
Male Wistar rats weighing 180-200 g were used. After the rats had fasted for 18 hr, 375 mg/kg galactosamine hydrochloride was administered to them intraperitoneally two times at 6 hr intervals. The compound under test was administered orally, 30 minutes before and, 6, 12 and 24 hr after the dose of D(+)-galactosamine hydrochloride and blood was collected after 24 and 48 hr. Plasma GOT and GPT activities were determined in the manner described in Experiment 1; plasma bilirubin activities were also determined. The effects were shown by the inhibition rate compared with controls (calculation by the formula shown in Experiment 1).

in vivo = conditions: mouse, mice, oral, observed for 14 days
Experimental: Male JCL-ICR mice (non SPF mice) from 7 weeks of age were used. The compound under test was dissolved in 5% v/v ethanol containing 0.4% w/v Tween 80 (Tween is a registered trademark) and administered orally to the mice.

[3] = tested on: α-naphthylisothiocyanate-induced liver damage; experiment: Effect on α-naphthylisothiocyanate-induced liver damage (cholangioatresia type); assay type: in vivo, Male Wistar rats; conditions: p.o., blood after 24 hr
Experimental: as §1
Effect on α-naphthylisothiocyanate-induced liver damage (cholangioatresia type)
Male Wistar rats weighing 190-220 g were used. After rats had fasted for 18 hr, α-naphthylisothiocyanate (ANIT) dissolved in olive oil (1.5% w/v) was given orally to them at 30 mg/kg body weight. The compound under test was administered orally 30 min before and 6 and 12 hr after administration of ANIT and blood was collected after 24 hr. Plasma GOT, GPT and bilirubin activities were determined and the results given in Table 3 show the inhibition rate compared with controls (calculation by the formula shown in Experiment 1).

[4] = tested on: carbon tetrachloride-induced liver cell necrosis; conditions: in vivo; cited from earlier work
[5] = tested on: acute galactosamine-induced liver damage; conditions: in vivo; cited from earlier work
[6] = tested on: diet-induced acute pancreatitis; conditions: mice; cited from earlier work
[7] = tested on: endotoxin-induced lung injury; conditions: sheep; cited from earlier work
endotoxin shock = conditions: dog; cited from earlier work
[8] = tested on: ischemic myocardial tissue; conditions: cat; cited from earlier work
[9] = tested on: isolate perfused cat liver; conditions: cited from earlier work
[10] = po, plasma GOT after 24 hr, read-out: inhibition rate, GOT
[11] = po, plasma GPT after 24 hr, read-out: inhibition rate, GPT
[12] = sc, plasma GOT after 24 hr, read-out: inhibition rate, GOT
[13] = sc, plasma GPT after 24 hr, read-out: inhibition rate, GPT

## CCCC[C@H](C)[C@H](O)/C=C/[C@H]1[C@H](O)CC(=O)[C@@H]1CC(=O)CCCCC(=O)OC [Compound 1, 16S-methyl-6-oxo-PGE1 methyl ester]
[1]; [10]
  inhibition in vivo at 0.1 mg/kg: 59.9%
[1]; [11]
  inhibition in vivo at 0.1 mg/kg: 53.5%
[1]; [12]
  inhibition in vivo at 0.02 mg/kg: 27.8%
[1]; [13]
  inhibition in vivo at 0.02 mg/kg: 16.3%

## O=C(CO)CCCC[C@H]1C[C@@H]2[C@@H](/C=C/[C@@H](O)C3CCCC3)[C@H](O)C[C@@H]2O1 [Compound 10, 2-decarboxy-2-glycoloyl-15-cyclopentyl-16,17,18,19,20-pentanor-6S-PGI]
[1]; [12]
  inhibition in vivo at 1 mg/kg: 11.8%
[1]; [13]
  inhibition in vivo at 1 mg/kg: 0%

## CCCCC[C@](C)(O)/C=C/[C@H]1[C@H](O)CC(=O)[C@@H]1CC(=O)CCCCC(=O)O [Compound 3, 15S-methyl-6-oxo-PGE1]
[1]; [10]
  inhibition in vivo at 0.1 mg/kg: 6.8%
[1]; [11]
  inhibition in vivo at 0.1 mg/kg: 13.2%

## CCCC[C@H](C)C[C@H](O)/C=C/[C@@H]1[C@H]2C[C@H](CCCCC(=O)OC)O[C@H]2C[C@H]1O [Compound 6, 17S,20-dimethyl-6S-PGI1 methyl ester]
[2]; 2000 μg/kg per administration
  inhibition rate, GOT 24 hr after: 50.2%
  inhibition rate, GPT 24 hr after: 37.8%
  inhibition rate, bilirubin 24 hr after: 31.8%
  inhibition rate, GOT 48 hr after: 25.5%
  inhibition rate, GPT 48 hr after: 21.4%
  inhibition rate, bilirubin 48 hr after: 19.2%
In vivo
  LD50 at 336 h: > 50 mg/kg
[1]; [12]
  inhibition in vivo at 0.5 mg/kg: 55.3%
[1]; [13]
  inhibition in vivo at 0.5 mg/kg: 64.6%
[3]; 2000 μg/kg per administration
  inhibition, GOT: 40.9%
  inhibition, GPT: 44.6%
  inhibition, bilirubin: 33.3%

## CCCC[C@H](C)C[C@H](O)/C=C/[C@@H]1[C@H]2C[C@H](CCCCCO)O[C@H]2C[C@H]1O [Compound 11, 17S,20-dimethyl-6S-PGI1 alcohol]
In vivo
  LD50 at 336 h: > 50 mg/kg
[1]; [12]
  inhibition in vivo at 0.5 mg/kg: 73.3%
[1]; [13]
  inhibition in vivo at 0.5 mg/kg: 65.2%

## CCCCC(C)(C)[C@H](O)/C=C/[C@H]1[C@H](O)CC(=O)[C@@H]1C/C=C\CCCC(=O)O [16,16-dimethyl-PGE2]
[4]
  prevention of carbon tetrachloride-induced liver cell necrosis: prevents
[5]
  prevention of acute galactosamine-induced liver damage: prevents

## CCCCC[C@H](O)/C=C/[C@H]1[C@H](O)CC(=O)[C@@H]1C/C=C\CCCC(=O)O [PGE2]
[6]
  effect against diet-induced acute pancreatitis: effective

## CCCC[C@H](C)C[C@H](O)/C=C/[C@H]1[C@H](O)CC(=O)[C@@H]1CC(=O)CCCCCO [Compound 5, 17S,20-dimethyl-6-oxo-PGE1 alcohol]
In vivo
  LD50 at 336 h: > 10 mg/kg
[1]; [10]
  inhibition in vivo at 0.05 mg/kg: 56.6%
[1]; [11]
  inhibition in vivo at 0.05 mg/kg: 59.1%
[3]; 100 μg/kg per administration
  inhibition, GOT: 54.1%
  inhibition, GPT: 53.1%
  inhibition, bilirubin: 41.7%

## CCCC[C@H](C)C[C@H](O)/C=C/[C@@H]1[C@H]2CC(CC/C=C/C(=O)OC)O[C@H]2C[C@H]1O (stereo partly drawn) [Compound 7, 17S,20-dimethyl-trans-Δ^2-6RS-PGI1 methyl ester]
[1]; [10]
  inhibition in vivo at 1 mg/kg: 58%
[1]; [11]
  inhibition in vivo at 1 mg/kg: 42.7%

## CCCC[C@H](C)C[C@H](O)/C=C/[C@@H]1[C@H]2C[C@H](CCCCC(=O)CO)O[C@H]2C[C@H]1O [Compound 9, 2-decarboxy-2-glycoloyl-17S,20-dimethyl-6S-PGI1]
In vivo
  LD50 at 336 h: > 50 mg/kg
[1]; [12]
  inhibition in vivo at 0.5 mg/kg: 58.4%
[1]; [13]
  inhibition in vivo at 0.5 mg/kg: 51.4%

## CCCC[C@H](C)C[C@H](O)/C=C/[C@H]1[C@H](O)CC(=O)[C@@H]1CC(=O)CCCCC(=O)OC [Compound 2, 17S,20-dimethyl-6-oxo-PGE1 methyl ester]
[2]; 100 μg/kg per administration
  inhibition rate, GOT 24 hr after: 29.5%
  inhibition rate, GPT 24 hr after: 6.7%
  inhibition rate, bilirubin 24 hr after: 24.2%
  inhibition rate, GOT 48 hr after: 32.7%
  inhibition rate, GPT 48 hr after: 23.5%
  inhibition rate, bilirubin 48 hr after: 34.6%
[1]; [10]
  inhibition in vivo at 0.05 mg/kg: 61.5%
[1]; [11]
  inhibition in vivo at 0.05 mg/kg: 44.1%
[1]; [12]
  inhibition in vivo at 0.02 mg/kg: 37.9%
[1]; [13]
  inhibition in vivo at 0.02 mg/kg: 34.6%
[3]; 100 μg/kg per administration
  inhibition, GOT: 39.6%
  inhibition, GPT: 41.9%
  inhibition, bilirubin: 37.5%

## CCCCC[C@H](O)/C=C/[C@@H]1[C@H]2C/C(=C/CCCC(=O)O)O[C@H]2C[C@H]1O [PGI2, (5Z,13E)-(9α,11α,15S)-6,9-epoxy-11,15-dihydroxyprosta-5,13-dienoic acid]
[7]
  effect on endotoxin-induced lung injury: prevents and is useful in treating
Endotoxin shock
  effect on endotoxin shock: prevents and is useful in treating
[8]
  effect on ischemic myocardial tissue: prevents and is useful in treating
[9]
  effect on hypoxia in the isolate perfused cat liver: prevents and is useful in treating

## CCCC[C@H](C)C[C@H](O)CC[C@H]1[C@H](O)CC(=O)[C@@H]1CC(=O)CCCCC(=O)OC [Compound 4, 17S,20-dimethyl-13,14-dihydro-6-oxo-PGE1 methyl ester]
In vivo
  LD50 at 336 h: > 10 mg/kg
[1]; [10]
  inhibition in vivo at 0.1 mg/kg: 52.1%
[1]; [11]
  inhibition in vivo at 0.1 mg/kg: 62.3%

## CCCC[C@H](C)C[C@H](O)/C=C/[C@@H]1[C@H]2CC(CCCCC(=O)OC)=N[C@H]2C[C@H]1O [Compound 8, 17S,20-dimethyl-6,9α-nitrilo-PGI1 methyl ester]
[2]; 1000 μg/kg per administration
  inhibition rate, GOT 24 hr after: 40.2%
  inhibition rate, GPT 24 hr after: 32.6%
  inhibition rate, bilirubin 24 hr after: 12.1%
  inhibition rate, GOT 48 hr after: 57.2%
  inhibition rate, GPT 48 hr after: 47.6%
  inhibition rate, bilirubin 48 hr after: 11.5%
In vivo
  LD50 at 336 h: 40 to 100 mg/kg
[1]; [10]
  inhibition in vivo at 1 mg/kg: 41.1%
[1]; [11]
  inhibition in vivo at 1 mg/kg: 14.5%
[1]; [12]
  inhibition in vivo at 0.5 mg/kg: 65.6%
[1]; [13]
  inhibition in vivo at 0.5 mg/kg: 58.6%
[3]; 1000 μg/kg per administration
  inhibition, GOT: 68.7%
  inhibition, GPT: 76.1%
  inhibition, bilirubin: 45.8%

## OCCCCC[C@H]1C[C@@H]2[C@@H](/C=C/[C@@H](O)C3CCCC3)[C@H](O)C[C@@H]2O1 [Compound 12, 15-cyclopentyl-16,17,18,19,20-pentanor-6S-PGI1 alcohol]
[1]; [10]
  inhibition in vivo at 2 mg/kg: 7.4%
[1]; [11]
  inhibition in vivo at 2 mg/kg: 44.1%

## CCCC1CCC(C(O)/C=C/[C@@H]2[C@H]3CC(CCCCCO)=N[C@H]3C[C@H]2O)C1 (single isomer, unassigned) [Compound 13, 15-(3-propylcyclopentyl)-16,17,18,19,20-pentanor-6,9α-nitrilo-PGI1 alcohol]
[1]; [10]
  inhibition in vivo at 1 mg/kg: 53.6%
[1]; [11]
  inhibition in vivo at 1 mg/kg: 58.2%
